According to article PMC9569420 (Communications Biology, 2022):

Key:
ACK1 = biological target: T1, ACK1 (Homo sapiens, UniProt Q07912); assay: HotSpot kinase assay; assay type: biochemical; details: read-out: % Enzyme Activity (relative to DMSO controls)
T1 construct: purchased Reaction Biology Corporation

ALK3/BMPR1A = biological target: T2, ALK3/BMPR1A (Homo sapiens, UniProt P36894); assay: HotSpot kinase assay; assay type: biochemical; details: read-out: % Enzyme Activity (relative to DMSO controls)
T2 construct: purchased Reaction Biology Corporation

ALK4/ACVR1B = biological target: T3, ALK4/ACVR1B (Homo sapiens, UniProt P36896); assay: HotSpot kinase assay; assay type: biochemical; details: read-out: % Enzyme Activity (relative to DMSO controls)
T3 construct: purchased Reaction Biology Corporation
T3 sequence (P36896 24-505): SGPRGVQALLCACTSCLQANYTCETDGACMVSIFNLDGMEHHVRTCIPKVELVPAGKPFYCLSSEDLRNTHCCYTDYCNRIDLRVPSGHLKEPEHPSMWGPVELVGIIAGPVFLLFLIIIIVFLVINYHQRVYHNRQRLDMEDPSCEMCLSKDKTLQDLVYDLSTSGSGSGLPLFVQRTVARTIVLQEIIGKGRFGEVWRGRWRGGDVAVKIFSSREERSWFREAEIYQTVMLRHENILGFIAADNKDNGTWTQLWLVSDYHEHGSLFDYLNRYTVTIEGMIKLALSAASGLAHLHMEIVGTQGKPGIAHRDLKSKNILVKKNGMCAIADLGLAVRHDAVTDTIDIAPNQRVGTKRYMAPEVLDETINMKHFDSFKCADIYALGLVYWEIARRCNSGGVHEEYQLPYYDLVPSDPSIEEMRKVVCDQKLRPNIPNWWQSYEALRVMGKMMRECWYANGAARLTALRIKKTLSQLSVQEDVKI

c-MER = biological target: T4, c-MER (Homo sapiens, UniProt Q12866); assay: HotSpot kinase assay; assay type: biochemical; details: read-out: % Enzyme Activity (relative to DMSO controls)
T4 construct: purchased Reaction Biology Corporation

CAMK1g = biological target: T5, CAMK1g (Homo sapiens, UniProt Q96NX5); assay: HotSpot kinase assay; assay type: biochemical; details: read-out: % Enzyme Activity (relative to DMSO controls)
T5 construct: purchased Reaction Biology Corporation

CDK1/cyclin A = biological target: T6, CDK1/cyclin A (Homo sapiens, UniProt P06493); assay: HotSpot kinase assay; assay type: biochemical; details: read-out: % Enzyme Activity (relative to DMSO controls)
T6 construct: purchased Reaction Biology Corporation
T6 sequence (P20248 whole entry): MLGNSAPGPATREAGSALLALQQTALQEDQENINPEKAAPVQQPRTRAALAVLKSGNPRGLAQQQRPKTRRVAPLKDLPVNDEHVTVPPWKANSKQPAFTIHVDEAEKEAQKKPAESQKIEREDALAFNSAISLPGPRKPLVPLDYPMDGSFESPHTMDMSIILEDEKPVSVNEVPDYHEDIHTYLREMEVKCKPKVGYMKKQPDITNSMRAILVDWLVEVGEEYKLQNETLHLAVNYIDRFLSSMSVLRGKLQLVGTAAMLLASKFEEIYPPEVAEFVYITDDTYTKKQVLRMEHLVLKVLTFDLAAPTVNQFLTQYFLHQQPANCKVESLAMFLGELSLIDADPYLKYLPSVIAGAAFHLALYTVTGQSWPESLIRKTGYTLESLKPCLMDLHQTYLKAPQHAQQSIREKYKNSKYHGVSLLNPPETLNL
T6 sequence (P06493 whole entry): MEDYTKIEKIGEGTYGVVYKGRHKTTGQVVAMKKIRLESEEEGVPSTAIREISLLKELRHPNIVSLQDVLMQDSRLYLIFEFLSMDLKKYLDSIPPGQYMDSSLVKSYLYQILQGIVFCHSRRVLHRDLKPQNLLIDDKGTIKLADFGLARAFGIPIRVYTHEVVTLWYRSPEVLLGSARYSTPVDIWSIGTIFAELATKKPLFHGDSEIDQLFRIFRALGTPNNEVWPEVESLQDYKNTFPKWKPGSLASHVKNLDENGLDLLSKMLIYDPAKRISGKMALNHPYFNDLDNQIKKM

CDK14/cyclin Y (PFTK1) = biological target: T7, CDK14/cyclin Y (PFTK1) (Homo sapiens, UniProt O94921); assay: HotSpot kinase assay; assay type: biochemical; details: read-out: % Enzyme Activity (relative to DMSO controls)
T7 construct: purchased Reaction Biology Corporation

CDK16/cyclin Y (PCTAIRE) = biological target: T8, CDK16/cyclin Y (PCTAIRE) (Homo sapiens, UniProt Q00536); assay: HotSpot kinase assay; assay type: biochemical; details: read-out: % Enzyme Activity (relative to DMSO controls)
T8 construct: purchased Reaction Biology Corporation
T8 sequence (Q00536 whole entry): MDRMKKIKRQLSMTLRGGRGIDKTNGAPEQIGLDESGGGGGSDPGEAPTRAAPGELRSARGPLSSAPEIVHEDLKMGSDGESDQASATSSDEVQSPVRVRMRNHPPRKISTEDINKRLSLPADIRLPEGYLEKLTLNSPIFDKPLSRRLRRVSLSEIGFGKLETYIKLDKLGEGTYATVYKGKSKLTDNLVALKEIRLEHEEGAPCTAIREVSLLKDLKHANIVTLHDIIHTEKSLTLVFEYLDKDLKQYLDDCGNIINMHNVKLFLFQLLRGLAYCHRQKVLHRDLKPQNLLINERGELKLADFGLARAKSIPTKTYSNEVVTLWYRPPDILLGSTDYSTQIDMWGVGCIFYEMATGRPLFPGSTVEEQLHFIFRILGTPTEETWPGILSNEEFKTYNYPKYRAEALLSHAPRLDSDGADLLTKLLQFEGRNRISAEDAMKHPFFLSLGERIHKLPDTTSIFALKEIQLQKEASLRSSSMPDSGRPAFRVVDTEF
T8 sequence (Q8ND76 whole entry partner): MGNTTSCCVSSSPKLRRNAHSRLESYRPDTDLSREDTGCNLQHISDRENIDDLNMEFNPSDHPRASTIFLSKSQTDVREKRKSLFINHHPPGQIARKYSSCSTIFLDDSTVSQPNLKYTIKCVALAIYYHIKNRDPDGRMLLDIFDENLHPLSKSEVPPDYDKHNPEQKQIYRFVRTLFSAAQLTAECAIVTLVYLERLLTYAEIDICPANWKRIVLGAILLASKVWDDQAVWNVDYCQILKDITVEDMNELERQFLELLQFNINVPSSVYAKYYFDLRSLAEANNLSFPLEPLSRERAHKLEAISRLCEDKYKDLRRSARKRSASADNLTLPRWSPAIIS

CDK2/cyclin A1 = biological target: T9, CDK2/cyclin A1 (Homo sapiens, UniProt P24941); assay: HotSpot kinase assay; assay type: biochemical; details: read-out: % Enzyme Activity (relative to DMSO controls)
T9 construct: purchased Reaction Biology Corporation

CDK5/p35 = biological target: T10, CDK5/p35 (Homo sapiens, UniProt Q00535); assay: HotSpot kinase assay; assay type: biochemical; details: read-out: % Enzyme Activity (relative to DMSO controls)
T10 construct: purchased Reaction Biology Corporation

CDK9/cyclin T1 = biological target: T11, CDK9/cyclin T1 (Homo sapiens, UniProt P50750); assay: HotSpot kinase assay; assay type: biochemical; details: read-out: % Enzyme Activity (relative to DMSO controls)
T11 construct: purchased Reaction Biology Corporation

CK1g2 = biological target: T12, CK1g2 (Homo sapiens, UniProt P78368); assay: HotSpot kinase assay; assay type: biochemical; details: read-out: % Enzyme Activity (relative to DMSO controls)
T12 construct: purchased Reaction Biology Corporation

DDR1 = biological target: T13, DDR1 (Homo sapiens, UniProt Q08345); assay: HotSpot kinase assay; assay type: biochemical; details: read-out: % Enzyme Activity (relative to DMSO controls)
T13 construct: purchased Reaction Biology Corporation

DMPK2 = biological target: T14, DMPK2 (Homo sapiens, UniProt Q6DT37); assay: HotSpot kinase assay; assay type: biochemical; details: read-out: % Enzyme Activity (relative to DMSO controls)
T14 construct: purchased Reaction Biology Corporation

DRAK1/STK17A = biological target: T15, DRAK1/STK17A (Homo sapiens, UniProt Q9UEE5); assay: HotSpot kinase assay; assay type: biochemical; details: read-out: % Enzyme Activity (relative to DMSO controls)
T15 construct: purchased Reaction Biology Corporation

DYRK1B = biological target: T16, DYRK1B (Homo sapiens, UniProt Q9Y463); assay: HotSpot kinase assay; assay type: biochemical; details: read-out: % Enzyme Activity (relative to DMSO controls)
T16 construct: purchased Reaction Biology Corporation
T16 sequence (Q9Y463 whole entry): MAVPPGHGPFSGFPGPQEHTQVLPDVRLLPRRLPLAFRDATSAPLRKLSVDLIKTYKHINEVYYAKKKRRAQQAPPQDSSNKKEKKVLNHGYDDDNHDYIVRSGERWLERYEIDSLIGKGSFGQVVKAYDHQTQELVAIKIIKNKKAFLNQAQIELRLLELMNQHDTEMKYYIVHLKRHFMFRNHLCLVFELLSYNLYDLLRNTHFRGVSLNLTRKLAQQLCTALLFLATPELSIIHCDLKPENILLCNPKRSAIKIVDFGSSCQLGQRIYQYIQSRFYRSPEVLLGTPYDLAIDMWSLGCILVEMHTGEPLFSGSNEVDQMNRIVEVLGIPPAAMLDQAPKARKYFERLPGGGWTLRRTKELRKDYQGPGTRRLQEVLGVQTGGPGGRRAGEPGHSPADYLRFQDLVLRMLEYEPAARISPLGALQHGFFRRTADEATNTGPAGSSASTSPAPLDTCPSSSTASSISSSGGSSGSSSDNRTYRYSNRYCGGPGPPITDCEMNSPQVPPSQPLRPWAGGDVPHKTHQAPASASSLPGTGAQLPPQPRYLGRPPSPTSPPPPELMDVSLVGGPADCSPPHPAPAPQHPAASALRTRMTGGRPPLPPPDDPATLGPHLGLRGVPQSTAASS

EPHA3 = biological target: T17, EPHA3 (Homo sapiens, UniProt P29320); assay: HotSpot kinase assay; assay type: biochemical; details: read-out: % Enzyme Activity (relative to DMSO controls)
T17 construct: purchased Reaction Biology Corporation

EPHA8 = biological target: T18, EPHA8 (Homo sapiens, UniProt P29322); assay: HotSpot kinase assay; assay type: biochemical; details: read-out: % Enzyme Activity (relative to DMSO controls)
T18 construct: purchased Reaction Biology Corporation

FER = biological target: T19, FER (Homo sapiens, UniProt P16591); assay: HotSpot kinase assay; assay type: biochemical; details: read-out: % Enzyme Activity (relative to DMSO controls)
T19 construct: purchased Reaction Biology Corporation

FES/FPS = biological target: T20, FES/FPS (Homo sapiens, UniProt P07332); assay: HotSpot kinase assay; assay type: biochemical; details: read-out: % Enzyme Activity (relative to DMSO controls)
T20 construct: purchased Reaction Biology Corporation

FGFR4 = biological target: T21, FGFR4 (Homo sapiens, UniProt P22455); assay: HotSpot kinase assay; assay type: biochemical; details: read-out: % Enzyme Activity (relative to DMSO controls)
T21 construct: purchased Reaction Biology Corporation

GRK7 = biological target: T22, GRK7 (Homo sapiens, UniProt Q8WTQ7); assay: HotSpot kinase assay; assay type: biochemical; details: read-out: % Enzyme Activity (relative to DMSO controls)
T22 construct: purchased Reaction Biology Corporation

Haspin = biological target: T23, Haspin (Homo sapiens, UniProt Q8TF76); assay: HotSpot kinase assay; assay type: biochemical; details: read-out: % Enzyme Activity (relative to DMSO controls)
T23 construct: purchased Reaction Biology Corporation

HIPK2 = biological target: T24, HIPK2 (Homo sapiens, UniProt Q9H2X6); assay: HotSpot kinase assay; assay type: biochemical; details: read-out: % Enzyme Activity (relative to DMSO controls)
T24 construct: purchased Reaction Biology Corporation
T24 sequence (Q9H2X6 whole entry): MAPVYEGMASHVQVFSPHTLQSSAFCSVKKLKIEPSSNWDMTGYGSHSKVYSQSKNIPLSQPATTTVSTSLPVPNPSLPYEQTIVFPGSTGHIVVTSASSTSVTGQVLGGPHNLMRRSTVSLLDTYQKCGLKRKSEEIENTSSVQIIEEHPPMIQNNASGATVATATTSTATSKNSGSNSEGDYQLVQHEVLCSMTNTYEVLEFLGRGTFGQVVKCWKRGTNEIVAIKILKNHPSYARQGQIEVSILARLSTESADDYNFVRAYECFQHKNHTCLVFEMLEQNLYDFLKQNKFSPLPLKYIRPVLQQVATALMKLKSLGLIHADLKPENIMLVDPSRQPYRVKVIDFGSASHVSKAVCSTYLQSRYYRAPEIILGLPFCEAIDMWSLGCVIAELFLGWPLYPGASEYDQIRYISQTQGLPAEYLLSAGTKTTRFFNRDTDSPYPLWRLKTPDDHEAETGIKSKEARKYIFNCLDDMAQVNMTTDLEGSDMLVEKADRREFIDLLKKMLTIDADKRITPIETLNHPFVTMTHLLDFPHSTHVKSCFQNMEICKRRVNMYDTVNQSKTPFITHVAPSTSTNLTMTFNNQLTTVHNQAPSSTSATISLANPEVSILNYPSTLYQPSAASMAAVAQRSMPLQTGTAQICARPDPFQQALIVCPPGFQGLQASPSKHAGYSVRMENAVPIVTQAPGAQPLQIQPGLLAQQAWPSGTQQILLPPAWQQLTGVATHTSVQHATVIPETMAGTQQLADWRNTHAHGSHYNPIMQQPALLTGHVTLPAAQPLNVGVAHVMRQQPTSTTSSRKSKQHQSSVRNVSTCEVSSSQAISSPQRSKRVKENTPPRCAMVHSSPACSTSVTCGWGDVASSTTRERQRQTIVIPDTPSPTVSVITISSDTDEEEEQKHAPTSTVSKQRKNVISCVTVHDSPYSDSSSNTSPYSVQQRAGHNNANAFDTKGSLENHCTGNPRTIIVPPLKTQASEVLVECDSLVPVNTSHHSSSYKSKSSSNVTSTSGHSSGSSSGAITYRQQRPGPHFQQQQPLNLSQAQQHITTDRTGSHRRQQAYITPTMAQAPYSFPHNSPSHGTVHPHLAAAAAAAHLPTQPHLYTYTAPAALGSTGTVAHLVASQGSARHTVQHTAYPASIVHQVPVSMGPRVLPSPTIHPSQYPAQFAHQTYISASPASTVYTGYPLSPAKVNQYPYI

IKKb/IKBKB = biological target: T25, IKKb/IKBKB (Homo sapiens, UniProt O14920); assay: HotSpot kinase assay; assay type: biochemical; details: read-out: % Enzyme Activity (relative to DMSO controls)
T25 construct: purchased Reaction Biology Corporation

IRAK1 = biological target: T26, IRAK1 (Homo sapiens, UniProt P51617); assay: HotSpot kinase assay; assay type: biochemical; details: read-out: % Enzyme Activity (relative to DMSO controls)
T26 construct: purchased Reaction Biology Corporation

IRR/INSRR = biological target: T27, IRR/INSRR (Homo sapiens, UniProt P14616); assay: HotSpot kinase assay; assay type: biochemical; details: read-out: % Enzyme Activity (relative to DMSO controls)
T27 construct: purchased Reaction Biology Corporation

LCK = biological target: T28, LCK (Homo sapiens, UniProt P06239); assay: HotSpot kinase assay; assay type: biochemical; details: read-out: % Enzyme Activity (relative to DMSO controls)
T28 construct: purchased Reaction Biology Corporation

LYN B = biological target: T29, LYN B (Homo sapiens, UniProt P07948); assay: HotSpot kinase assay; assay type: biochemical; details: read-out: % Enzyme Activity (relative to DMSO controls)
T29 construct: purchased Reaction Biology Corporation

MEK3 = biological target: T30, MEK3 (Homo sapiens, UniProt P46734); assay: HotSpot kinase assay; assay type: biochemical; details: read-out: % Enzyme Activity (relative to DMSO controls)
T30 construct: purchased Reaction Biology Corporation

MKK4 = biological target: T31, MKK4 (Homo sapiens, UniProt P45985); assay: HotSpot kinase assay; assay type: biochemical; details: read-out: % Enzyme Activity (relative to DMSO controls)
T31 construct: purchased Reaction Biology Corporation
T31 sequence (P45985 whole entry): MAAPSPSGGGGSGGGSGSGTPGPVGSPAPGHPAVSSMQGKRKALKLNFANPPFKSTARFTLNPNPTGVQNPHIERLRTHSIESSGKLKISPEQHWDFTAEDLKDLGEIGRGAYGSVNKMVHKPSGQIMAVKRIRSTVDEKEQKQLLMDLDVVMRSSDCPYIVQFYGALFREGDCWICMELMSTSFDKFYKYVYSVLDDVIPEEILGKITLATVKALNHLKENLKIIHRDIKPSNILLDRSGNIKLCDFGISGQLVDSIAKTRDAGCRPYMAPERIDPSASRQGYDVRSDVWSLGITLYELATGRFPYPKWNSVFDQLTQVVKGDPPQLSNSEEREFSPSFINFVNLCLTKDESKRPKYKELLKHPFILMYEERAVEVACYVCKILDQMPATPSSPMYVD

NEK2 = biological target: T32, NEK2 (Homo sapiens, UniProt P51955); assay: HotSpot kinase assay; assay type: biochemical; details: read-out: % Enzyme Activity (relative to DMSO controls)
T32 construct: purchased Reaction Biology Corporation

NIM1 = biological target: T33, NIM1 (Homo sapiens, UniProt Q8IY84); assay: HotSpot kinase assay; assay type: biochemical; details: read-out: % Enzyme Activity (relative to DMSO controls)
T33 construct: purchased Reaction Biology Corporation

OSR1/OXSR1 = biological target: T34, OSR1/OXSR1 (Homo sapiens, UniProt O95747); assay: HotSpot kinase assay; assay type: biochemical; details: read-out: % Enzyme Activity (relative to DMSO controls)
T34 construct: purchased Reaction Biology Corporation
T34 sequence (O95747 whole entry): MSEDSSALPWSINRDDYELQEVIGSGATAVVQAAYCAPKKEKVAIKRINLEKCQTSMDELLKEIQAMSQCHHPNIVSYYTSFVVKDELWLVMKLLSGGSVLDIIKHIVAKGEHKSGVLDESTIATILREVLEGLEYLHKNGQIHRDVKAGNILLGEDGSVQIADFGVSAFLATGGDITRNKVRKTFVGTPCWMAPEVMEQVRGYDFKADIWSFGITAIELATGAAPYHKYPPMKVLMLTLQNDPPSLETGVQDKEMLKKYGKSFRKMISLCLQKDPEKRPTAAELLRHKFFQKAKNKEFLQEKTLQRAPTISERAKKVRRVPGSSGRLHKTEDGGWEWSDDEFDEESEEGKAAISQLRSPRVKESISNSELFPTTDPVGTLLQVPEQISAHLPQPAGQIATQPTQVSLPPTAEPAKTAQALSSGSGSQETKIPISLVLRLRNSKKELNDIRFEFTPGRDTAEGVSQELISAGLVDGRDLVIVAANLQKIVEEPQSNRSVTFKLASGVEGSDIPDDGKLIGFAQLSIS

p70S6Kb/RPS6KB2 = biological target: T35, p70S6Kb/RPS6KB2 (Homo sapiens, UniProt Q9UBS0); assay: HotSpot kinase assay; assay type: biochemical; details: read-out: % Enzyme Activity (relative to DMSO controls)
T35 construct: purchased Reaction Biology Corporation

PLK3 = biological target: T36, PLK3 (Homo sapiens, UniProt Q9H4B4); assay: HotSpot kinase assay; assay type: biochemical; details: read-out: % Enzyme Activity (relative to DMSO controls)
T36 construct: purchased Reaction Biology Corporation

ROCK1 = biological target: T37, ROCK1 (Homo sapiens, UniProt Q13464); assay: HotSpot kinase assay; assay type: biochemical; details: read-out: % Enzyme Activity (relative to DMSO controls)
T37 construct: purchased Reaction Biology Corporation

RON/MST1R = biological target: T38, RON/MST1R (Homo sapiens, UniProt Q04912); assay: HotSpot kinase assay; assay type: biochemical; details: read-out: % Enzyme Activity (relative to DMSO controls)
T38 construct: purchased Reaction Biology Corporation

RSK3 = biological target: T39, RSK3 (Homo sapiens, UniProt Q15349); assay: HotSpot kinase assay; assay type: biochemical; details: read-out: % Enzyme Activity (relative to DMSO controls)
T39 construct: purchased Reaction Biology Corporation

SIK2 = biological target: T40, SIK2 (Homo sapiens, UniProt Q9H0K1); assay: HotSpot kinase assay; assay type: biochemical; details: read-out: % Enzyme Activity (relative to DMSO controls)
T40 construct: purchased Reaction Biology Corporation

SYK = biological target: T41, SYK (Homo sapiens, UniProt P43405); assay: HotSpot kinase assay; assay type: biochemical; details: read-out: % Enzyme Activity (relative to DMSO controls)
T41 construct: purchased Reaction Biology Corporation

TSSK2 = biological target: T42, TSSK2 (Homo sapiens, UniProt Q96PF2); assay: HotSpot kinase assay; assay type: biochemical; details: read-out: % Enzyme Activity (relative to DMSO controls)
T42 construct: purchased Reaction Biology Corporation

HaCat cells = assay: cell proliferation and viability, ~50% confluence; details: 0.1–100 μM, 24 and 72 h; except 72 h at 100 μM

Molecule CO[C@@H]1[C@H](N(C)C(=O)CCC(=O)NCc2cn(CCCS(=O)(=O)O)nn2)C[C@H]2O[C@]1(C)n1c3ccccc3c3c4c(c5c6ccccc6n2c5c31)C(=O)NC4 [CIMSS] has a remaining activity at 10 µM (ACK1) of 7.33%, a remaining activity at 10 µM (ALK3/BMPR1A) of 79.5% and a remaining activity at 10 µM (ALK4/ACVR1B) of 58.3%. For the same molecule, the remaining activity at 10 µM (c-MER) was 2.17%, the remaining activity at 10 µM (CAMK1g) was 8.97% and the remaining activity at 10 µM (CDK1/cyclin A) was 21.3%. It also gave a remaining activity at 10 µM (CDK14/cyclin Y (PFTK1)) of 74.5%, a remaining activity at 10 µM (CDK16/cyclin Y (PCTAIRE)) of 76.6% and a remaining activity at 10 µM (CDK2/cyclin A1) of 7.95%. The remaining activity at 10 µM (CDK5/p35) was 8.78%, the remaining activity at 10 µM (CDK9/cyclin T1) was 13.1% and the remaining activity at 10 µM (CK1g2) was 98.5%. The remaining activity at 10 µM (DDR1) was 0.98%, the remaining activity at 10 µM (DMPK2) was 10.9% and the remaining activity at 10 µM (DRAK1/STK17A) was 18.2%. The remaining activity at 10 µM (DYRK1B) was 0.41%, the remaining activity at 10 µM (EPHA3) was 37.9% and the remaining activity at 10 µM (EPHA8) was 70.1%. The remaining activity at 10 µM (FER) was 0.37%, the remaining activity at 10 µM (FES/FPS) was 2.77% and the remaining activity at 10 µM (FGFR4) was 4.31%. It also gave a remaining activity at 10 µM (GRK7) of 7.19%, a remaining activity at 10 µM (Haspin) of 49.5% and a remaining activity at 10 µM (HIPK2) of 17.5%. For the same molecule, the remaining activity at 10 µM (IKKb/IKBKB) was 33.4%, the remaining activity at 10 µM (IRAK1) was 3.57% and the remaining activity at 10 µM (IRR/INSRR) was 4.68%. The remaining activity at 10 µM (LCK) was 3.41%, the remaining activity at 10 µM (LYN B) was 2.95% and the remaining activity at 10 µM (MEK3) was 49.3%. For the same molecule, the remaining activity at 10 µM (MKK4) was 99%, the remaining activity at 10 µM (NEK2) was 18.8% and the remaining activity at 10 µM (NIM1) was 46.6%. The remaining activity at 10 µM (OSR1/OXSR1) was 54.2%, the remaining activity at 10 µM (p70S6Kb/RPS6KB2) was 3.38% and the remaining activity at 10 µM (PLK3) was 98.2%. For the same molecule, the remaining activity at 10 µM (ROCK1) was 26.2%, the remaining activity at 10 µM (RON/MST1R) was 25.1% and the remaining activity at 10 µM (RSK3) was 3.38%. For the same molecule, the remaining activity at 10 µM (SIK2) was 1.49%, the remaining activity at 10 µM (SYK) was 0.87% and the remaining activity at 10 µM (TSSK2) was 21.2%. For the same molecule, the “inhibition of cell growth” value (HaCat cells) was “no significant inhibition”.
